Patent publication US8980850B2, “Administration of a NEDD8-activating enzyme inhibitor and hypomethylating agent” (Millennium Pharmaceuticals, Inc., priority 2011, dated 2015)

Tests used:
[1] = test system: HL-60 disseminated xenograft; assay: HL-60 disseminated xenograft model, survival; type: in vivo, female mice CB-17 SCID; conditions: MLN4924 180 mg/kg and/or azacitidine 10 mg/kg s.c. on days 22, 25, 29, 32, 36, 39; for Mean survival time: Vehicle 48.1
Protocol: Test subjects. […] On day 20 post-inoculation, mice were randomized into groups of 10. Starting on day 22, mice were dosed subcutaneously with vehicle, 180 mg/kg MLN4924, 10 mg/kg azacitidine, or the combination of 180 mg/kg MLN4924 and 10 mg/kg azacitidine, using the same twice-weekly schedule as described in the subcutaneous xenograft experiments (dosing on days 22, 25, 29, 32, 36, 39). The mice were monitored at least twice weekly for body weight loss and signs of disease, including paresis or paralysis of hind limbs and emergence of palpable and internal solid tumors. The day on which an animal died or was sacrificed due to disease burden was recorded.
To determine synergy in the survival times, the mean survival times and corresponding standard errors were computed for each treatment group.

[2] = test system: HL60 subcutaneous xenograft tumors; assay: HL-60 subcutaneous xenograft model, tumor growth and synergy; conditions: s.c. Days 1, 4, 8, 11, 15 and 18; FIG. 2
[3] = test system: THP-1 subcutaneous xenograft tumors; assay: THP-1 subcutaneous xenograft model, tumor growth and synergy; conditions: s.c. Days 1, 4, 8, 11, 15 and 18; FIG. 3
[4] = test system: OCI-M2 subcutaneous xenograft tumors; assay: OCI-M2 subcutaneous xenograft model, tumor growth and synergy; conditions: s.c. Days 1, 4, 8, 11, 15 and 18; FIG. 4

Row | SMILES | extension of mean survival time compared to the control group [1] [days] | Mean survival time [1] [days] | effect on tumor growth [2] | effect on tumor growth [3] | effect on tumor growth [4] | single agent activity (THP-1)
1 | NS(=O)(=O)OC[C@@H]1C[C@@H](n2ccc3c(N[C@H]4CCc5ccccc54)ncnc32)C[C@@H]1O [MLN4924, ((1S,2S,4R)-4-(4-((1S)-2,3-dihydro-1H-inden-1-ylamino)-7H-pyrrolo[2,3-d]-pyrimidin-7-yl)-2-hydroxycyclopentyl)methyl sulfamate] | 8.4 | 56.5 | marginal effect on tumor growth | inhibited tumor growth | inhibited tumor growth | –
2 | Nc1ncn([C@@H]2O[C@H](CO)[C@@H](O)[C@H]2O)c(=O)n1 [azacitidine, 4-amino-1-β-D-ribofuranosyl-s-triazin-2(1H)-one] | 21.1 | 69.2 | marginal effect on tumor growth | marginal effect on tumor growth | inhibited tumor growth | –
3 | Nc1ncn([C@H]2C[C@H](O)[C@@H](CO)O2)c(=O)n1 [decitabine, 4-amino-1-(2-deoxy-β-D-erythropentofuranosyl)-1,3,5-triazin-2(1H)-one] | – | – | – | – | – | lack of single agent activity
